{"source": "patent US20260201420A1", "about": "“HOMOLOGY-INDEPENDENT TARGETED DNA INSERTION IN HUMAN T CELLS” (The Board of Trustees of The Leland Stanford Junior …, priority 2022, published 2026)", "key": {"primary human T cells [1]": {"tested_on": "primary human T cells", "assay": "HDR inhibitor (AZD0156) modulation of GD2-CAR integration via HITI and HDR", "format": "cell-based", "procedure": "(§1) Fresh Leukopaks were obtained from STEMCELL Technologies and processed for negative selection using the EasySep Human T Cell Isolation Kit. Cells were activated using Dynabeads Human T-Activator CD3/CD28 (Thermo Fisher) at a 1:1 ratio and cultivated in TexMACS media supplemented with human IL-7 at 12.5 ng/ml and IL-15 at 12.5 ng/ml (all Miltenyi Biotec) as well as 3% human male AB Serum (Access Cell Culture). The culture volume was expanded over time to maintain cells at a concentration of ^~1.5×10^6/ml using G-Rex 24-well and 6-well plates or G-Rex 100M according to manufacturer's instructions (Wilson-Wolf). Small molecule inhibitors AZD0156 (Selleck Chemicals) and Methotrexate (Sigma Aldrich) were resuspended in DMSO and added to the cell culture media as indicated.\nOn day 2, unless otherwise indicated, Dynabeads were magnetically removed and cells were counted prior to electroporation on the Maxcyte GTx. For electroporation cells were washed once in Electroporation Buffer (Maxcyte) and then resuspended at 2×10^8/ml for small scale experiments or in 2.4 ml for large-scale electroporation. Wildtype Cas9 (61 μM, IDT) and sgRNA (125 μM, IDT) were mixed vol 1:1 resulting in a molar ratio of 2:1 and incubated for 10 min. at room temperature. Hereafter indicated amounts of plasmid DNA (3 mg/ml) were added to the RNP and incubated for at least 10 min. to allow the RNP to cut the plasmid DNA. For small-scale experiments 5×10^6 T cells were resuspended in 25 μl and 1.25 μl of RNP and respective amounts of plasmid DNA were added. Cells were then transferred into OC-25×3 processing assemblies and electroporated using the Expanded T cell 4 protocol for activated T cells or the Resting T cell 14-3 protocol for electroporation of non-activated T cells, which were stimulated after electroporation with Dynabeads at a 1:1 ratio. Small scale experiments for GPC2 CAR knock-in were conducted using the OC100×2 processing assembly with a final reaction volume of 100 μl. For large scale experiments the GMP compatible CL1.1 assembly was used. […]"}, "primary human T cells [2]": {"tested_on": "primary human T cells", "assay": "Titration of MTX in primary human T cells", "format": "cell-based", "procedure": "as §1\nTo enable enrichment of the desired CAR+ knock-in population we optimized CEMENT based selection by comparing three different clinically relevant enrichment markers: Dihydrofolate Reductase^L22F/F31S (DHFR-FS), truncated Epidermal Growth Factor Receptor (tEGFR), and truncated Nerve Growth Factor Receptor (tNGFR)^9,17,33. All three enrichment markers were successfully co-inserted along with the GD2-CAR resulting in total transgene sizes of ^~2.5-3 kb. CRISPR knock-in CAR-T cells were either enriched using the FDA approved drug MTX which was diluted from a 10 mM stock in media to result in a 50 nM final concentration. […]"}, "primary human T cells [3]": {"tested_on": "primary human T cells", "assay": "HITI/CEMENT knock-in CAR-T cell manufacturing at clinical scale", "format": "cell-based", "settings": "end of MTX treatment (day 7), 50 nM", "procedure": "as §1\nOn day 2, unless otherwise indicated, Dynabeads were magnetically removed and cells were counted prior to electroporation on the Maxcyte GTx. For electroporation cells were washed once in Electroporation Buffer (Maxcyte) and then resuspended at 2×10^8/ml for small scale experiments or in 2.4 ml for large-scale electroporation. […]\nCell counts and Viability were obtained using the Nexcelom Cellometer Auto 2000. Samples were mixed with AO/PI dye at a 1:1 volume ratio and then analyzed using the setting Immune Cells—Low RBC. […]"}, "primary human T cells [4]": {"tested_on": "primary human T cells", "assay": "CRISPR knock-in of GD2-CAR into TRAC in activated T cells (HDR vs HITI plasmid templates), flow cytometry and cell counts", "format": "cell-based", "settings": "for knock-in frequencies (mean frequencies): GD2-CAR into TRAC, activated T cells electroporated day 2, flow cytometry day 10, n=4 donors", "procedure": "as §1\nPlasmid DNA was optimized for gene therapeutic application and consisted of two components: R6K origin of replication and an anti-Levansucrase antisense RNA to allow for an antibiotic-free selection. This ^~430 bp backbone prevents transgene silencing after genomic insertion^40,43,44. Knock-In templates were synthesized at Genscript and flanking cut sites for NheI and KpnI were used to clone synthetic genes into plasmid backbones. To introduce RNP cut sites within the plasmid DNA, the genomic target of the respective RNP was included into the above mentioned synthetic gene.\n(§2) On day 2, unless otherwise indicated, Dynabeads were magnetically removed and cells were counted prior to electroporation on the Maxcyte GTx. For electroporation cells were washed once in Electroporation Buffer (Maxcyte) and then resuspended at 2×10^8/ml for small scale experiments or in 2.4 ml for large-scale electroporation. Wildtype Cas9 (61 μM, IDT) and sgRNA (125 μM, IDT) were mixed vol 1:1 resulting in a molar ratio of 2:1 and incubated for 10 min. at room temperature. Hereafter indicated amounts of plasmid DNA (3 mg/ml) were added to the RNP and incubated for at least 10 min. to allow the RNP to cut the plasmid DNA. For small-scale experiments 5×10^6 T cells were resuspended in 25 μl and 1.25 μl of RNP and respective amounts of plasmid DNA were added. Cells were then transferred into OC-25×3 processing assemblies and electroporated using the Expanded T cell 4 protocol for activated T cells or the Resting T cell 14-3 protocol for electroporation of non-activated T cells, which were stimulated after electroporation with Dynabeads at a 1:1 ratio. Small scale experiments for GPC2 CAR knock-in were conducted using the OC100×2 processing assembly with a final reaction volume of 100 μl. For large scale experiments the GMP compatible CL1.1 assembly was used. Post electroporation cells were rested in electroporation buffer either in the processing assembly (OC-25×3, OC-100×2) or in G-Rex 6-well plates (CL1.1) for 30 min. before being transferred into final G-Rex vessels.\n(§3) Cell counts and Viability were obtained using the Nexcelom Cellometer Auto 2000. Samples were mixed with AO/PI dye at a 1:1 volume ratio and then analyzed using the setting Immune Cells—Low RBC.\n(§4) For GD2-CAR and GPC2-CAR detection, an anti-14g2a idiotype or recombinant human Glypican-2 protein (R&D systems) were fluorescently labeled with the DyLight 650 Microscale Antibody Labeling kit (Thermo Fisher). For intracellular staining CAR+ T cells were co-cultured with respective tumor cell lines at a 1:4 ratio. Prior to co-cultivation the protein transport inhibitor Monensin (BD) and the anti-CD107a antibody (Biolegend) were added to T cell samples. […]"}, "TRAC": {"tested_on": "TRAC", "assay": "IN&OUT PCR and Sanger sequencing of knock-in junctions", "parameters": "species or system human", "settings": "IN&OUT PCR, Sanger sequencing", "procedure": "Genomic DNA was extracted using the PureLink Genomic DNA Mini Kit (Invitrogen). Primers flanking the insertion sites of HITI1c and binding outside the respective homology arm sequence of HDR2c as well as primers binding within the inserted sequences were designed using Primer3Plus (www.primer3plus.com). Phusion Hot Start Flex 2× Mastermix (NEB) was used to amplify genomic regions of interest and DNA gel electrophoresis was conducted using the E-Gel Power Snap System (Thermo Scientific). Samples were shipped to ELIM BIOPHARM for Sanger sequencing. Sequences were aligned for analysis using snapgene."}, "non-activated T cells": {"tested_on": "non-activated T cells", "assay": "CRISPR knock-in of GD2-CAR in non-activated T cells", "format": "cell-based, human", "settings": "HITI1c vs HDR2c, day 10", "procedure": "as §2, §3\nas §4, with “ratio.” for “ratio. Prior to co-cultivation the protein transport inhibitor Monensin (BD) and the anti-CD107a antibody (Biolegend) were added to T cell samples.”"}}, "data": [{"compound": "CN(C)CCCOc1ccc(-c2ccc3ncc4c(c3c2)n(C2CCOCC2)c(=O)n4C)cn1", "note": "[AZD0156]", "values": [{"measurement": "knock-in efficiency of HDR2c when AZD0156 was added", "setting": "primary human T cells [1]; HDR2c template, 18 hours treatment post electroporation, vs untreated", "value": "decreased knock-in efficiency"}, {"measurement": "insertion rates for HITI1c when AZD0156 was added", "setting": "primary human T cells [1]; HITI1c template, 18 hours treatment post electroporation, vs untreated", "value": "higher insertion rates"}, {"measurement": "GD2-CAR T cell yields in HITI1c samples after AZD0156 treatment", "setting": "primary human T cells [1]; compared to untreated controls", "value": "decreased GD2-CAR T cell yields"}]}, {"compound": "CN(Cc1cnc2nc(N)nc(N)c2n1)c1ccc(C(=O)N[C@@H](CCC(=O)O)C(=O)O)cc1", "note": "[MTX, methotrexate]", "values": [{"measurement": "concentration from which efficient killing occurs", "setting": "primary human T cells [2]; n=2 donors, technical duplicates", "value": "≥ 50", "unit": "nM"}, {"measurement": "concentration at which MTX exerts cytostatic effects in dividing T cells", "setting": "primary human T cells [2]; primary human T cells post activation", "value": 50, "unit": "nM"}, {"measurement": "effects of MTX on viability of edited vs. non-edited T cells", "setting": "primary human T cells [3]", "value": "only non-edited cells were compromised in their viability"}]}, {"compound": "HITI1c: Knock-In template plasmid, one cut site: cut_site-EFS-Signalpeptide-14g2a-CD8TM-4-1BB-CD3z-STOP-bGH_ployA (SEQ ID NO: 3)", "values": [{"measurement": "knock-in frequencies (mean frequencies)", "setting": "primary human T cells [4]", "value": 15.7, "unit": "%"}, {"measurement": "GD2-CAR T cell yields, HITI vs HDR", "setting": "primary human T cells [4]; HITI1c vs HDR2c, day 10, average", "value": "~ 3 fold"}, {"measurement": "GD2-CAR T cell yield, one cut site vs two cut sites", "setting": "primary human T cells [4]; HITI1c vs HITI2c, day 10", "value": "~ 6 fold"}, {"measurement": "insertion rates, HITI1c vs HDR2c", "setting": "primary human T cells [4]; activated T cells, day 10", "value": "comparable"}, {"measurement": "Indels at both junctions of integrated plasmid construct", "setting": "TRAC", "value": 6, "unit": "bp"}, {"measurement": "CAR+ T cell yield in non-activated T cells", "setting": "non-activated T cells", "value": "higher"}, {"measurement": "insertion rates in non-activated T cells", "setting": "non-activated T cells", "value": "higher"}, {"measurement": "viability in non-activated T cells", "setting": "non-activated T cells", "value": "higher"}]}, {"compound": "HITI2c: Knock-In template plasmid, two cut sites: cut_site-EFS-Signalpeptide-14g2a-CD8TM-4-1BB-CD3z-STOP-bGH_ployA-cut_site (SEQ ID NO: 4)", "values": [{"measurement": "knock-in frequencies (mean frequencies)", "setting": "primary human T cells [4]", "value": 9.3, "unit": "%"}]}]}
